Test results taken from patent publication US20260115250A1, “METHODS OF TREATING AGE-RELATED MACULAR DEGENERATION” (Character Biosciences, Inc., priority 2022, published 2026).
Peptide text beside a SMILES is read from it.

Experiments:
ARPE-19 cells = assay: ARPE-19 cholesterol efflux; assay type: cell-based, human; settings: ARPE-19, 20 μM peptide, 4 hours
Protocol: Fully confluent 96-well plates of ARPE-19 cells were treated for 1 hour in serum-free DMEM containing 10 mM methyl-β-cyclodextrin, 100 μM cholesterol, and 25 μM BODIPY cholesterol. Cells were then washed and incubated overnight in serum-free DMEM containing 1 μM GW3965, 2 μg/mL ACAT inhibitor, and 0.2% BSA (LXR Agonist treated), or serum free DMEM containing 2 μg/mL ACAT inhibitor, and 0.2% BSA (Control). Cells were washed and incubated with 20 μM peptides diluted in serum-free Fluorobrite DMEM for 4 hours at 37° C. Media was transferred to a new 96-well plate and fresh serum-free Fluorobrite DMEM was placed on the cells. Media and cellular fluorescence were read on a Promega GloMax at 475 nm excitation, 500-550 emission. Fluorescence values were background corrected from no treatment conditions and percent efflux was calculated by the following equation: % efflux=(Media Fluorescence values)/(Media+Cell Fluorescence values). Data are presented as mean+SD over two runs per peptide.

ABCA1 = target: T1, ABCA1 (Homo sapiens, UniProt O95477); assay: membrane ABCA1 stability testing in ARPE-19 cells treated with mCRP; assay type: cell-based; settings: ARPE-19, mCRP, 20 μM peptide, 24 hours
T1 construct: endogenous in cells; host or cells: ARPE-19
Protocol: ARPE-19 cells were seeded at 100,000 cells per well on 12-well plates and were allowed to grow to confluence. To prepare monomeric CRP (mCRP), recombinant CRP was prepared in a PBS solution containing 8 M Urea and 10 mM EDTA and incubated at 37° C. for 2 hours prior to desalting with a Zeba spin column (7K MW cutoff). mCRP was prepared to a 2× solution of 20 μg/mL. A 2× solution of 40 μM peptides was prepared in serum-free DMEM and serially diluted 1:2 over 4 concentrations. mCRP and peptides were added 1:1 to cells for 24 hours at 37° C. before isolating membrane protein and measuring membrane ABCA1 levels by western blot. Blots were quantified in ImageJ. Signals were further normalized to the LXR agonist treated group to determine percent (%) ABCA1 remaining. Treatment with LXR agonist increased membrane ABCA1 levels in this assay, but following treatment with mCRP, membrane ABCA1 levels were decreased.
FIGS. 35 and 36 show membrane ABCA1 stability testing using ARPE-19 cells. ARPE-19 cells were seeded at 100,000 cells per well on 12-well plates and were allowed to grow to confluence. To prepare monomeric CRP (mCRP), recombinant CRP was prepared in a PBS solution containing 8 M Urea and 10 mM EDTA and incubated at 37° C. for 2 hours prior to desalting with a Zeba spin column (7K MW cutoff). mCRP was prepared to a 2× solution of 20 μg/mL. A 2× solution of 40 μM peptides was prepared in serum-free DMEM. CRP and peptides were added 1:1 to cells for 24 hours at 37° C. before isolating membrane protein and measuring membrane ABCA1 levels by western blot. Blots were quantified in ImageJ. In FIG. 35, Signals were further normalized to the T-087 treated group to determine percent (%) ABCA1 levels compared to peptide T-087 treated cells. In FIG. 36, Signals were further normalized to the peptide T-101 treated group to determine percent (%) ABCA1 levels compared to peptide T-101 treated cells.

HMC3 cells = assay: HMC3 cholesterol efflux; assay type: cell-based, human; settings: HMC3, 20 μM peptide, 4 hours
Protocol: FIGS. 27A-27B and FIG. 28 illustrate HMC3 cholesterol efflux. Fully confluent 96-well plates of HMC3 cells were treated for 1 hour in serum-free EMEM containing 10 mM methyl-β-cyclodextrin, 100 μM cholesterol, and 25 μM BODIPY cholesterol. Cells were then washed and incubated overnight in serum free EMEM containing 1 μM LXR agonist GW3965, 2 μg/mL ACAT inhibitor, and 0.2% BSA (LXR Agonist treated), or serum-free EMEM containing 2 μg/mL ACAT inhibitor, and 0.2% BSA (Control). Cells were washed and incubated with 20 μM peptides diluted in serum-free Fluorobrite DMEM for 4 hours at 37° C. Media was transferred to a new 96-well plate and fresh serum-free Fluorobrite DMEM was placed on the cells. Media and cellular fluorescence were read on a Promega GloMax at 475 nm excitation, 500-550 emission. Fluorescence values were background corrected from no treatment conditions and percent efflux was calculated by the following equation: % efflux=(Media Fluorescence values)/(Media+Cell Fluorescence values). Data are presented as mean+SD over two runs per peptide.
FIGS. 30A-30J show HMC3 cholesterol efflux titration curves for the indicated peptides. Fully confluent 96-well plates of HMC3 cells were treated for 1 hour in serum-free EMEM containing 10 mM methyl-β-cyclodextrin, 100 μM cholesterol, and 25 μM BODIPY cholesterol. Cells were then washed and incubated overnight in serum free EMEM containing 1 μM GW3965, 2 μg/mL ACAT inhibitor, and 0.2% BSA (LXR Agonist treated), or serum free EMEM containing 2 μg/mL ACAT inhibitor, and 0.2% BSA (Control). Cells were washed and incubated with 0-100 μM peptides serially diluted in serum-free Fluorobrite DMEM for 4 hours at 37° C. Media was transferred to a new 96-well plate and fresh serum-free Fluorobrite DMEM was placed on the cells. Media and cellular fluorescence were read on a Promega GloMax at 475 nm excitation, 500-550 emission. Fluorescence values were background corrected from no treatment conditions and percent efflux was calculated by the following equation: % efflux=(Media Fluorescence values)/(Media+Cell Fluorescence values). Data are presented as mean+SD over two runs per peptide.

[1] = key assays (summary statement on homologous variants)
LDLR = LDLR (Homo sapiens, UniProt P01130); assay: LDLR binding (SPR), high surfactant preparation; settings: high surfactant preparation (HBS-P+), 1:1 binding model; read-out: binding KD to LDLR
Protocol: The table shown in FIG. 23 illustrates LDLR binding data (SPR), using a high surfactant preparation. Recombinant LDLR was diluted in 10 mM acetate buffer pH 4.5 and amine coupled to a CM5 chip at 1000 RU. Peptides were diluted to 5 μM in running buffer (HBS-P+, 1 mM CaCl2) and serially diluted 1:3 for 5 total concentrations. Peptides were exposed to immobilized LDLR at a rate of […] for 120 seconds. Between cycles, the chip surface was regenerated with 3 injections of 50 mM NaOH/100 mM EDTA. Multi-Cycle Kinetics was performed on a Biacore Insight Evaluation Software and binding kinetics were analyzed with a 1:1 binding model.

T1 sequence (O95477 whole entry): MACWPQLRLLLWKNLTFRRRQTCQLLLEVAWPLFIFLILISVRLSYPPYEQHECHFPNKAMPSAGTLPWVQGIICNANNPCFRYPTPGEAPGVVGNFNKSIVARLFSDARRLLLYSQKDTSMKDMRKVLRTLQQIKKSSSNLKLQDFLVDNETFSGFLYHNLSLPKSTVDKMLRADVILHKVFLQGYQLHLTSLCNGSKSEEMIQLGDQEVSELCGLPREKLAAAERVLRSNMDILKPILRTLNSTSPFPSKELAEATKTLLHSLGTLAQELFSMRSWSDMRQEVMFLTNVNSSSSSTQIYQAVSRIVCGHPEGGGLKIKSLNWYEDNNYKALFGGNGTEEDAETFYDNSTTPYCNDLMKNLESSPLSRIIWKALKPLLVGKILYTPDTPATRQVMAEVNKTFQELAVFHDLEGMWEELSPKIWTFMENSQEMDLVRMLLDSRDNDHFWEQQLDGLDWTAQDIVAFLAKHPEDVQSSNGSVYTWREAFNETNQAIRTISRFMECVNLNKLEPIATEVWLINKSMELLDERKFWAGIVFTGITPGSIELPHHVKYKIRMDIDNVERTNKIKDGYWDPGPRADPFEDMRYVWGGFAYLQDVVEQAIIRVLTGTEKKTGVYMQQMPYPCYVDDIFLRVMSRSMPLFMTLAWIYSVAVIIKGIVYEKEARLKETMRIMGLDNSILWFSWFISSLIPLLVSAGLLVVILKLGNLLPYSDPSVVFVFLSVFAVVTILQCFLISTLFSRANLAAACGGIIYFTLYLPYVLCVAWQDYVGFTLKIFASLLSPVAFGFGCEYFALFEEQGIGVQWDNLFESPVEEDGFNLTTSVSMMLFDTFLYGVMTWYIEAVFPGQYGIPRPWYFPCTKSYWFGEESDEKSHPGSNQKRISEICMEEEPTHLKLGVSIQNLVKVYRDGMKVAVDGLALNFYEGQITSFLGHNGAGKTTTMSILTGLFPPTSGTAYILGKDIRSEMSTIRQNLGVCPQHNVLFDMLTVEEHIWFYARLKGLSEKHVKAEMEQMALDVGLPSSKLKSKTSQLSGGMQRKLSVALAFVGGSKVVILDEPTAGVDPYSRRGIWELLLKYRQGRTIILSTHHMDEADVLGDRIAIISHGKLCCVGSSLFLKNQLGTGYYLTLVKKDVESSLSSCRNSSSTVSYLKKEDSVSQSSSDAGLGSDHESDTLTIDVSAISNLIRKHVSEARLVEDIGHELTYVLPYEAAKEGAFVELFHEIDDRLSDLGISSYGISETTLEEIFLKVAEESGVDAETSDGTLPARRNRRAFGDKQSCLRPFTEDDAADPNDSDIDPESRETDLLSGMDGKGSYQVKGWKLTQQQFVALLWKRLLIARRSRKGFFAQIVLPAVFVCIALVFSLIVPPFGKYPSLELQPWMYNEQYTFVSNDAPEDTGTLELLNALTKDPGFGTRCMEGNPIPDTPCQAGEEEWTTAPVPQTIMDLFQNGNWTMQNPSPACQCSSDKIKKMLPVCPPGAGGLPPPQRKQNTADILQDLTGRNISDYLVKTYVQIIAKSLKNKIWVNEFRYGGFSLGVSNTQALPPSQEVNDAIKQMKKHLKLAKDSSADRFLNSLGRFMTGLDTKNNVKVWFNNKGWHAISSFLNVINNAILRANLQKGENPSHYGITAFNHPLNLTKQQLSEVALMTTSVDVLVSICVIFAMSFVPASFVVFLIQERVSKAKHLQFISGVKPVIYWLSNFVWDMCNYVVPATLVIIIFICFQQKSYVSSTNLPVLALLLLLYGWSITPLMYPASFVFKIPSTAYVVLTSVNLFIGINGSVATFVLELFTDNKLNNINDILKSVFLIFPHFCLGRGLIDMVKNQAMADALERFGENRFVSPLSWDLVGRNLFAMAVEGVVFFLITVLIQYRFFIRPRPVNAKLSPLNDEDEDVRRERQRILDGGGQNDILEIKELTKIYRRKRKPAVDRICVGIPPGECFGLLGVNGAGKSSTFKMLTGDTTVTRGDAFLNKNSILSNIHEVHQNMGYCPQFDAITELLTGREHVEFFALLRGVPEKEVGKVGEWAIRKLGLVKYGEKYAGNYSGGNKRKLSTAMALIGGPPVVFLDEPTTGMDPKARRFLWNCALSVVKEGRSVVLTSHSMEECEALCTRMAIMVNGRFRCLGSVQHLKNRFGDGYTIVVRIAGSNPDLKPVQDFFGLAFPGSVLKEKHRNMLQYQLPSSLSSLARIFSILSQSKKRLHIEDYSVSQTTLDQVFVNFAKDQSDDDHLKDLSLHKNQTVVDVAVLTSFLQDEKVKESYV
Sequence of LDLR (P01130 22-860): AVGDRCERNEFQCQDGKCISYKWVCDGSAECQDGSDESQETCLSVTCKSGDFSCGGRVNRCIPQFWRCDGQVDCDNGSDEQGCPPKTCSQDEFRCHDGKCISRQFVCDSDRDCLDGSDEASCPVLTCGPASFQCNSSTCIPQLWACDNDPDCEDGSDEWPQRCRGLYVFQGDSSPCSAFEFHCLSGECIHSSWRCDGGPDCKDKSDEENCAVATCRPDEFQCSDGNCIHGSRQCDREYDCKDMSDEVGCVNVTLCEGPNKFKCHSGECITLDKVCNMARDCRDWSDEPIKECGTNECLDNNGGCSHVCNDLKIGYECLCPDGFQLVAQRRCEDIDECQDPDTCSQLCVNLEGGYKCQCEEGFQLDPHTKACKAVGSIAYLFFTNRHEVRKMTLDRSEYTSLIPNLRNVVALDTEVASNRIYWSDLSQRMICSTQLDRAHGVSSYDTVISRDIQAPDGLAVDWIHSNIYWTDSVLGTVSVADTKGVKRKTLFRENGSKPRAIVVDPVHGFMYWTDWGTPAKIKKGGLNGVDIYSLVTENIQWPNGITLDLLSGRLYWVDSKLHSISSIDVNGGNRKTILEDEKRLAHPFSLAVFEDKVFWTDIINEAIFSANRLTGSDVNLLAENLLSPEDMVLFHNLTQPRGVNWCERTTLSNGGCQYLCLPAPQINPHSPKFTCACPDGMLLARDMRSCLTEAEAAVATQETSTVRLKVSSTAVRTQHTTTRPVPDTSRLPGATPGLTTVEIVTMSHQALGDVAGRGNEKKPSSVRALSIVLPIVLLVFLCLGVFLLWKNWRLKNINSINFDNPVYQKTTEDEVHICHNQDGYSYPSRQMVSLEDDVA

membrane ABCA1 levels compared to peptide T-087 treated cells (ABCA1)	Molecule	cholesterol efflux following LXR agonist treatment (ARPE-19 cells)	also measured
–	T-174: variant of peptide T-087 (DAWAAARALFKELADYFR)	increased cholesterol efflux	–
–	T-168: variant of peptide T-087 (DAWERFRALFKELGDYFR)	increased cholesterol efflux	–
reduction of membrane ABCA1 levels	T-155: variant of peptide T-087 (DAAERFRALFKELADYFR)	increased cholesterol efflux	–
reduction of membrane ABCA1 levels	T-159: variant of peptide T-087 (DAWERFAALFKELADYFR)	increased cholesterol efflux	–
–	T-171: variant of peptide T-087 (DAWERFRALFKELADYAR)	increased cholesterol efflux	–
–	T-178: variant of peptide T-087 (DAWERFRALFKELADAAA)	increased cholesterol efflux	–
–	T-122: variant of peptide T-101 (RAGADALESALKELKRFIREWT)	–	cholesterol efflux in the presence of LXR agonist (HMC3 cells): greater cholesterol efflux; activity in key assays of polypeptides of the SEQ ID NO. 101 family [1]: sustained or improved activity
reduction of membrane ABCA1 levels	T-170: variant of peptide T-087 (DAWERFRALFKELADAFR)	increased cholesterol efflux	–
–	T-160: variant of peptide T-087 (DAWERFRPLFKELADYFR)	increased cholesterol efflux	activity in key assays of polypeptides homologous to T-087 [1]: sustained or improved activity
–	T-154: variant of peptide T-087 (DGWERFRALFKELADYFR)	increased cholesterol efflux	–
–	T-129: variant of peptide T-101 (RSGADALEAALKELKRFIREWT)	–	cholesterol efflux in the presence of LXR agonist (HMC3 cells): greater cholesterol efflux; activity in key assays of polypeptides of the SEQ ID NO. 101 family [1]: sustained or improved activity
–	T-153: variant of peptide T-087 (DPWERFRALFKELADYFR)	increased cholesterol efflux	–
reduction of membrane ABCA1 levels	T-166: variant of peptide T-087 (DAWERFRALFKEAADYFR)	increased cholesterol efflux	–
–	T-164: variant of peptide T-087 (DAWERFRALFAELADYFR)	increased cholesterol efflux	–
–	T-175: variant of peptide T-087 (DAWERFAAAFKELADYFR)	increased cholesterol efflux	–
–	T-136: variant of peptide T-101 (RSGADALESALKELKAFIREWT)	–	cholesterol efflux in the presence of LXR agonist (HMC3 cells): greater cholesterol efflux; activity in key assays of polypeptides of the SEQ ID NO. 101 family [1]: sustained or improved activity
reduction of membrane ABCA1 levels	T-158: variant of peptide T-087 (DAWERARALFKELADYFR)	increased cholesterol efflux	–
reduction of membrane ABCA1 levels	T-156: variant of peptide T-087 (DAWARFRALFKELADYFR)	increased cholesterol efflux	–
–	T-176: variant of peptide T-087 (DAWERFRALAAALADYFR)	increased cholesterol efflux	–
–	T-123: variant of peptide T-101 (RSAADALESALKELKRFIREWT)	–	cholesterol efflux in the presence of LXR agonist (HMC3 cells): greater cholesterol efflux; activity in key assays of polypeptides of the SEQ ID NO. 101 family [1]: sustained or improved activity
–	T-139: variant of peptide T-101 (RSGADALESALKELKRFIAEWT)	–	cholesterol efflux in the presence of LXR agonist (HMC3 cells): greater cholesterol efflux; activity in key assays of polypeptides of the SEQ ID NO. 101 family [1]: sustained or improved activity
reduction of membrane ABCA1 levels	T-157: variant of peptide T-087 (DAWEAFRALFKELADYFR)	increased cholesterol efflux	–
reduction of membrane ABCA1 levels	T-167: variant of peptide T-087 (DAWERFRALFKELPDYFR)	increased cholesterol efflux	–
–	CC(C)C[C@H](NC(=O)[C@H](CCCNC(=N)N)NC(=O)[C@H](CC(=O)O)NC(=O)[C@H](CCC(N)=O)NC(=O)[C@H](CC(C)C)NC(=O)[C@H](CCCCN)NC(=O)[C@H](CC(=O)O)NC(=O)CNC(=O)[C@H](CC(=O)O)NC(=O)[C@H](CCCNC(=N)N)NC(=O)[C@H](Cc1ccccc1)NC(=O)[C@H](CC(C)C)NC(=O)[C@H](CCCNC(=N)N)NC(=O)[C@H](CCCCN)NC(=O)[C@@H](NC(=O)[C@H](CC(C)C)NC(=O)[C@H](CCCCN)NC(=O)[C@H](CCCNC(=N)N)NC(=O)[C@H](CC(C)C)NC(=O)[C@@H](N)Cc1c[nH]cn1)C(C)C)C(=O)N[C@@H](C)C(=O)N[C@@H](CCC(=O)O)C(=O)N[C@@H](Cc1ccc(O)cc1)C(=O)N[C@@H](CCC(N)=O)C(=O)N[C@@H](C)C(=O)N[C@@H](CCCNC(=N)N)C(=O)N[C@@H](C)C(=O)N[C@@H](CCCCN)C(=O)N[C@@H](CCC(=O)O)C(=O)N[C@@H](C)C(=O)N[C@@H](Cc1ccccc1)C(=O)N[C@@H](CC(=O)O)C(=O)N[C@@H](CCCNC(=N)N)C(=O)O [T-059] (H-HLRKLVKRLFRDGDKLQDRLAEYQARAKEAFDR-OH)	–	Kd (LDLR): < 10 µM
reduction of membrane ABCA1 levels	T-162: variant of peptide T-087 (DAWERFRAAFKELADYFR)	increased cholesterol efflux	–
